Experimental data taken from patent publication US12303551B2, “Cellular immunotherapy compositions and uses thereof” (CERO THERPEUTICS HOLDINGS, INC., priority 2018, dated 2025).

Test system: HCC827 NSCLC cells
Experiment: FACS phagocytosis assay of TAMRA-SE labeled HCC827 cells with or without bafilomycin
Assay type: cell-based
Details: 20 nM added to co-culture
Source text: FIGS. 73A-73B show ablation of CER-induced phagocytosis by bafilomycin, an inhibitor of phagolysosome V-ATPase. CER104-modified CD4+ T cells and mock transduced CD4+ T cells (control) were co-cultured with HCC827 cells that were labeled with TAMRA-SE fluorescent dye and treated with osimertinib. Phagocytosis was quantified by FACs.
T cells were transduced with lentiviral vector comprising hCER104 nucleic acid as described in Example 6. hCER104 modified T cells were co-cultured with HCC827 adenocarcinoma cells with or without osimertinib. […] FACs plots from in vitro phagocytosis assays in hCER104 modified T cells or mock transduced control T cells are shown in FIG. 73B.

CO/C1=C\C(C)=C\[C@@H](C)[C@@H](O)[C@@H](C)C/C(C)=C/C=C/[C@H](OC)[C@@H]([C@@H](C)[C@@H](O)[C@H](C)[C@@]2(O)C[C@@H](O)[C@H](C)[C@@H](C(C)C)O2)OC1=O [bafilomycin, reference compound]
effect on uptake of labeled HCC827 cells by hCER104 modified T cells: blocked uptake
